Several values for one entry are separate records, joined by “and”; a condition that tells them apart may be missing. Identical values can stand only once. Entries after “also recorded” stand apart in the source; their conditions may differ.
How the values were obtained:
Assay type in all cases: in vivo, mouse
[1] = tested on: autosomal Alport mice (COL4A3^−/−); assay: Late intervention study in Alport mice (treated from 5-7 weeks of age)
Excerpt: (§1) Vehicle or sparsentan was given daily by oral gavage to autosomal Alport mice (COL4A3^−/−) on the 129/Sv background (male and female) in five separate studies: a pilot study, an early intervention study (treated from 3-7 weeks of age), a late intervention study (treated from 5-7 weeks of age after the onset of glomerular (GM) changes), a lifespan study, and a hearing study (FIG. 1). The early intervention, late intervention, lifespan, and hearing studies also included mice treated with a comparator, losartan, which was given orally at 3-4 weeks of age in the early intervention study, in drinking water at 4-7 weeks of age in the early intervention study, and in drinking water at 5-7 weeks in the late intervention study.
(§2) Efficacy renal endpoints included blood urea nitrogen (BUN), proteinuria (urine protein to creatinine ratio, or UP/C), glomerulosclerosis, tubulointerstitial fibrosis, leucocyte infiltration, and glomerular basement morphology (GBM) using transmission electron microscopy (TEM). Endpoints in the inner ear included auditory brain stem response (ABR) threshold as a measure of noise-induced hearing loss, strial capillary basement membrane thickness, and inner ear pathology by TEM.
In the late intervention study, wild-type or Alport mice (8 mice per group) were dosed for 14 days according to the same methods used in the early intervention study but beginning at 5 weeks of age, i.e., dosed with vehicle, 120 mg/kg of sparsentan, or 10 mg/kg losartan starting at 5 weeks of age for 14 days. In this study, untreated Alport mice at 5 weeks of age were also used as baseline controls.
(§3) For the pilot, early intervention, late intervention, and lifespan studies, spot urine was sampled pre-study and weekly during treatment and analyzed for protein (UP) and creatinine (C) to determine proteinuria (UP/C). At the end of each study the animals were euthanized, blood samples were taken, BUN was measured from serum, and kidneys were harvested for structural and immuno-fluorescent measurements. Glomerulosclerosis was assessed by immunofluorescence (IF) using an antibody to fibronectin (FN). Visual counting of the number of sclerotic glomeruli as a proportion of the total number of glomeruli per slide was used to calculate the percentage of sclerotic glomeruli. Sections were co-stained with an anti-CD45 antibody to indicate leucocyte infiltration. Tubulointerstitial fibrosis was determined by IF of kidney sections using an antibody to collagen 1 (COL1). Tubulointerstitial fibrosis (TIF) scoring was conducted by visual assessment of the COL1 positive area as a percentage of the total cortical area and was performed blinded. The fibrosis scoring (“Fibrosis Score”) was categorized according to visual judgment of percentage of total cortical area, as: 0=<5%, 1=5-10%, 2=10-25%, 3=25-50%, 4=50-75%, or 5=75-100%. Ultrastructural changes in GBM and podocyte morphology were observed using transmission electron microscopy (TEM).
For a baseline comparison for late intervention, glomerulosclerosis and fibrosis were determined in kidney samples taken from 5-week-old untreated Alport mice.

[2] = tested on: autosomal Alport mice (COL4A3^−/−); assay: Early intervention study in Alport mice (treated from 3-7 weeks of age)
Excerpt: as §1, §2
In the early intervention study, wild-type and Alport mice were dosed daily by oral gavage with vehicle or sparsentan at 120 mg/kg from 3 to 7 weeks of age (7-8 mice per group), or with losartan at 20 mg/kg by oral gavage from 3-4 weeks of age (during weaning) and 10 mg/kg in drinking water from 4-7 weeks of age.
as §3

[3] = tested on: autosomal Alport mice (COL4A3^−/−); assay: Lifespan study in Alport mice
Excerpt: as §1
In the lifespan study, Alport mice (n=10) were dosed using the same methodology as in the early intervention study, except that dosing was continued until mice had lost 10% of their peak body weight, after which they were euthanized.
For the pilot, early intervention, late intervention, and lifespan studies, spot urine was sampled pre-study and weekly during treatment and analyzed for protein (UP) and creatinine (C) to determine proteinuria (UP/C). At the end of each study the animals were euthanized, blood samples were taken, BUN was measured from serum, and kidneys were harvested for structural and immuno-fluorescent measurements. Glomerulosclerosis was assessed by immunofluorescence (IF) using an antibody to fibronectin (FN). Visual counting of the number of sclerotic glomeruli as a proportion of the total number of glomeruli per slide was used to calculate the percentage of sclerotic glomeruli. Sections were co-stained with an anti-CD45 antibody to indicate leucocyte infiltration. Tubulointerstitial fibrosis was determined by IF of kidney sections using an antibody to collagen 1 (COL1). Tubulointerstitial fibrosis (TIF) scoring was conducted by visual assessment of the COL1 positive area as a percentage of the total cortical area and was performed blinded. […]

[4] = tested on: laminin α2 in stria of Alport mice; assay: Immunofluorescence of laminin α2 in stria of Alport mice; conditions: Alport mice, sparsentan 200 mg/kg from 3-7 weeks of age (pilot study)
Protocol: In the pilot study, designed to determine an optimal efficacious dose of sparsentan, Alport mice (3-4 per group) were dosed with vehicle (0.5% methylcellulose 4000 cps/0.25% Tween® 80 in distilled water) or sparsentan at 60 mg/kg or 200 mg/kg from 3 to 7 weeks of age for 28 days. Although 200 mg/kg sparsentan was efficacious in the pilot study, BUN levels were higher than those of Alport mice dosed with 60 mg/kg sparsentan (Table 1; FIG. 2A; FIG. 2B). This observation led to the selection of a 120 mg/kg dose of sparsentan to take forward into the early intervention study. During the pilot study, blood pressure (BP) was measured weekly using the CODA2 tail cuff system. […]
For the hearing study, wild-type or Alport mice were treated according to daily from 3-8.5 weeks of age by oral gavage with vehicle (0.5% methylcellulose 4000 cps/0.25% Tween® 80 in distilled water) or 120 mg/kg sparsentan or losartan at 20 mg/kg by oral gavage from 3-4 weeks of age (during weaning) and 10 mg/kg in drinking water from 4-7 weeks of age (n=5). The progression of Alport disease was assessed at 7 weeks of age by the amount of proteinuria (via urinalysis reagent strips—data not shown). […] Hearing ability and sensitivity to noise were assessed between 7 and 8 weeks of age by Auditory Brainstem Response (ABR), pre-noise exposure. […]

[5] = tested on: autosomal Alport mice (COL4A3^−/−); assay: Hearing study in Alport mice (ABR, noise exposure, strial capillary basement membrane TEM)
Excerpt: as §1, §2
For the hearing study, wild-type or Alport mice were treated according to daily from 3-8.5 weeks of age by oral gavage with vehicle (0.5% methylcellulose 4000 cps/0.25% Tween® 80 in distilled water) or 120 mg/kg sparsentan or losartan at 20 mg/kg by oral gavage from 3-4 weeks of age (during weaning) and 10 mg/kg in drinking water from 4-7 weeks of age (n=5). The progression of Alport disease was assessed at 7 weeks of age by the amount of proteinuria (via urinalysis reagent strips—data not shown). Strial capillary basement membrane (SCBM) width was analyzed by transmission electron microscopy (TEM), and accumulation of extracellular matrix (ECM) in SCBM was determined by immunofluorescence (IF) microscopy using an antibody to laminin α2. Hearing ability and sensitivity to noise were assessed between 7 and 8 weeks of age by Auditory Brainstem Response (ABR), pre-noise exposure. A subset of each treatment group was then exposed to a metabolic noise stress for 10 hours. Mice receiving the noise treatment were randomly selected for overstimulation with a 106 dB sound pressure level (SPL), narrow band noise (8-16 kHz) for 10 hours, usually 10 PM to 8 AM. The noise exposure was conducted in a sound-isolation booth. A speaker was suspended from the ceiling. Wire cages with individual compartments were located midway between the floor and speaker. Mice were hydrated prior to placement in the cage and were provided free access to food. The noise exposure occurred at 8 weeks of age. The amount of hearing loss caused by the metabolic noise exposure was determined 5 days post-exposure.

[6] = Alport mice late intervention, sparsentan 120 mg/kg, mean ± SD
[7] = Alport mice, sparsentan 120 mg/kg, at 7 wk of age, mean ± SD

For `CCCCC1=NC2(CCCC2)C(=O)N1Cc1ccc(-c2ccccc2S(=O)(=O)Nc2noc(C)c2C)c(COCC)c1` [sparsentan], the UP/C ([1]; Alport mice late intervention, sparsentan 120 mg/kg for 14 days from 5 wk of age, mean ± SD, n = 8) was 16.8 ± 2.8 mg/mg, the BUN [1, 6] was 16.2 ± 2.4 mg/dL and the “GS (% Sclerotic glomeruli)” value [1, 6] was 8.3 ± 9.2 %. The TIF ([1]; Alport mice late intervention, sparsentan 120 mg/kg, tubulointerstitial fibrosis score, mean ± SD) was 0.8 ± 0.7, the “Nephroprotection in AP mice” value ([1]; late intervention, to a greater extent than in the losartan-treated group) was “significant nephroprotection” and the “Development of fibrosis, CD45^+ leucocyte infiltration, and glomerulosclerosis” value ([1]; sparsentan 120 mg/kg or losartan 10 mg/kg, 5-7 weeks of age) was “prevented; also recorded: attenuated”. The “UP/C, BUN, glomerulosclerosis, and fibrosis vs. vehicle-treated Alport mice” value ([1]; sparsentan 120 mg/kg, late intervention, P<0.05) was “significantly lower”, the “GBM damage and podocyte effacement (TEM)” value ([2]; Alport mice, sparsentan 120 mg/kg, early intervention) was “prevented changes in GBM ultrastructural morphology; also recorded: amelioration” and the UP/C ([2]; Alport mice, sparsentan 120 mg/kg oral daily from 3 wk, at 4 wk of age, mean ± SD, n = 8) was 3.8 ± 1.3 mg/mg. It also gave a UP/C ([2]; Alport mice, sparsentan 120 mg/kg, at 5 wk of age, mean ± SD) of 10.4 ± 2.8 mg/mg, a UP/C ([2]; Alport mice, sparsentan 120 mg/kg, at 6 wk of age, mean ± SD) of 13.6 ± 3.7 mg/mg and a BUN [2, 7] of 17.5 ± 3.3 mg/dL. The “Sclerotic Glomeruli (%)” value [2, 7] was 0.8 ± 1.7 %, the UP/C [2, 7] was 14.0 ± 3.3 mg/mg and the “Fibrosis Score” value ([2]; Alport mice, sparsentan 120 mg/kg, at 7 wk, score 0=<5% to 5=75-100% COL1 area, mean ± SD) was 0.0 ± 0.0. The “Development of nephropathy in Alport mice” value ([2]; sparsentan 120 mg/kg 28 days or losartan 20 mg/kg 7 days then 10 mg/kg 21 days, from 3 weeks of age) was “prevented”, the “UP/C, BUN, glomerulosclerosis, and fibrosis vs. vehicle-treated Alport mice” value ([2]; sparsentan 120 mg/kg or losartan 20/10 mg/kg from 3 weeks of age, P<0.05) was “significant attenuation” and the TIF or glomerulosclerosis ([2]; sparsentan- or losartan-treated Alport mice, early intervention) was “little to no”. The “Lifespan compared to vehicle-treated Alport mice” value ([3]; dosing as in early intervention study, continued until 10% loss of peak body weight, P<0.05) was “significantly longer; also recorded: significantly greater”, the Median lifespan ([3]; sparsentan compared with losartan) was “the same as losartan” and the “Accumulation of laminin α2 in stria” value [4] was “prevented”. For the same compound, the “Hearing ability before noise exposure (ABR)” value ([5]; 7-8-week-old mice, sparsentan 120 mg/kg or losartan 20/10 mg/kg) was “did not differ significantly”, the “Post-noise hearing loss (ABR threshold post-noise minus pre-noise) vs vehicle-treated Alport mice” value ([5]; 16 kHz, 5 days after 10 h noise, sparsentan 120 mg/kg, P<0.05) was “prevented; also recorded: significantly reduced” and the “Increase in strial capillary basement membrane width observed in vehicle-treated Alport mice” value ([5]; Alport mice treated 3-8.5 weeks of age with sparsentan or losartan) was “prevented”. For the same compound, the “mean SCBM width±SD” value ([5]; Alport mice, sparsentan 120 mg/kg from 3-8.5 weeks of age, TEM, n=5) was 54.7±2.4 nm, the “Strial capillary basement membrane thickness, single measurements (FIG. 16)” value ([5]; capillary from a stria of a sparsentan-treated Alport mouse, TEM) was 52.45 nm and 58.09 nm and 80.38 nm and the “Stria vascularis pathology by TEM” value ([5]; treated Alport mice, FIGS. 14-23) was “substantially fewer extra- and intra-cytosolic vacuoles”.
